How the values were obtained:
[1] = system: Primary human DC; experiment: Cytokine concentrations in LPS-stimulated monocyte-derived dendritic cells, ELISA; assay type: cell-based; conditions: LPS 24 hours
Experimental: Primary human DC were produced from CD14+ monocytes isolated from healthy human PBMC via magnetic cell sorting. Monocyte-derived DC were pre-treated with test compounds or a vehicle control for 6 hours prior to stimulation by LPS for 24 hours. Cytokine concentrations in cell supernatants were determined by ELISA (eBiosciences).

[2] = physchem; conditions: for Rm: calculated from Rf
Experimental: The partition coefficient (P) is used to describe the lipophilicity of a drug. It is defined as the ratio of equilibrium concentrations of a drug in an organic phase (Corg) and an aqueous phase (Caq).
Most commonly the organic solvent is n-octanol and the other solvent is water. Hydrophobic molecules will have a high P value while hydrophilic molecules will have a low P value.
Rm values were calculated from Rf values that were obtained at three different mobile phase compositions (40, 50 and 60% MeOH in water).
The Rm value was calculated using the following equation: […]
The theoretical Rm value at 0% organic modifier was calculated by extrapolating from the calibration curves that were obtained. These values were then correlated to the literature log P of two reference compounds (methyl benzoate and paracetamol).

[3] = system: normal healthy skin; experiment: Assessment of erythema and itchiness after topical application to shaved forearm; assay type: in vivo
Experimental: Test article dispersed in petroleum jelly was applied to a 2×2 cm patch of shaved forearm (n=3). At specified time intervals the degree of erythema was recorded by blinded observers on a scale of 1-4 (n=3). Itchiness was observed by scratching behaviour also by blinded observers on a scale of 1-4. The time course of erythema resolution was recorded at 30 minute intervals.

[4] = system: Aldara-treated mice; experiment: Aldara-induced model of psoriasis in mice, clinical scoring (PASI); assay type: in vivo, mice (C57BL/6J)
Experimental: Specific Pathogen-Free female C57BL/6J strain mice, 6-8 weeks of age, were obtained from a commercial supplier and bred in-house (JAX, Charles River). Mice were fed irradiated diet and housed in individually ventilated cages (Tecniplast, UK) under positive pressure. All animal experiments were performed in compliance with the Health Products Regulatory Authority and approved by the Trinity College Dublin's BioResources ethical review board.
The Aldara-induced model of psoriasis was used (Flutter and Nestle, 2013; Morwietz, 2015; Russell et al., 2013; van der Fits et al., 2009). The dorsal skin of mice was shaved and depilated on day −1. Mice were that were in the telogen phase (resting phase) of the hair cycle were chosen for experiments. Mice with visual skin damage from shaving were excluded. Mice were then randomly divided into groups for treatment with topical application of vehicle (white petroleum jelly) or Solvotrin test compounds, prepared in white petroleum jelly. On day 0, mice were scored for disease signs, as per below. After which 62.5 mg of Aldara™ cream (5% Imiquimod; MEDA Pharmaceuticals) was applied to a defined area of the shaved dorsal skin surface. Thirty minutes after the Aldara application, test compounds or vehicle was applied to the dorsal flank, to cover the entire Aldara-challenged surface, with an even layer of the white petroleum. This process was repeated for a further 5 days. Mice were scored daily. On day 6 the mice were euthanized for tissue collection.
The skin of mice was scored for signs of psoriasis-like inflammation for a total of 7 days, (i.e. days 0-6), as described (van der Fits et al., 2009). Mice were scored according to 3 parameters: erythema (the redness of skin); thickening of the skin; and scaling (dryness and flaking of the skin). For each parameter, the mice were scored on a scale from 0-4. Mice with no pathology were scored 0. Mice with mild pathology scored 1. […] The total, or Psoriasis Area and Severity Index (PASI), score was the cumulative score of all three parameters. Therefore for each mouse studied the PASI score can range between 0 to 12.
Power calculations on data from previous studies have shown that a sample size of at least 6 will detect significant difference (P<0.05) in PASI scores between groups. ANOVA and Dunnett Multiple Comparison Test determined statistical differences between multiple groups. Two tailed Student's t-test was used to compare statistical differences between two groups.
Unless otherwise specified percentage concentration of a test compound in a composition refers to the weight percent of said test compound in the composition. For example, application of 2% compound X, means application of a composition comprising 2 weight percent of compound X.

[5] = system: Peripheral Blood Mononuclear Cells (PBMCs); experiment: Cytokine-expressing cells in stimulated PBMC (anti-CD3, PMA and ionomycin), flow cytometry; assay type: cell-based, human
Experimental: PBMC were isolated from leukocyte-enriched buffy coats obtained from anonymous healthy donors with consent from the Irish Blood Transfusion Service, St James' Hospital, Dublin, Ireland. PBMC were pre-treated with test compounds or a vehicle control at the indicated concentrations for 6 hours prior to stimulation by anti-CD3 for 4 days and re-stimulated with PMA and ionomycin for 6 hours. Thereafter cells were counted using flow cytometry.

[6] = activated T-cells, various concentrations

With `CC(=O)Oc1ccccc1C(=O)O[C@H]1COC2C1OC[C@H]2OC(=O)c1cccnc1` (stereo partly drawn) [ST0702, Isosorbide-2-aspirinate-5-nicotinate] the IL-10 [1] was “no appreciable effect”, the chromatographic logP [2] was 4.1 and the Rf ([2]; 40% MeOH in water) was 0.0460. It also gave a Rm ([2]; 40% MeOH in water) of 1.3168, a Rf ([2]; 50% MeOH in water) of 0.1200 and a Rm ([2]; 50% MeOH in water) of 0.8653. For the same compound, the Rf ([2]; 60% MeOH in water) was 0.2730, the Rm ([2]; 60% MeOH in water) was 0.4254 and the “Extrapolated Rm (y value)” value ([2]; theoretical Rm at 0% organic modifier) was 3.0977. For the same compound, the “cumulative irritancy score (irritancy/erythema)” value ([3]; 2%) was “did not cause irritancy/erythema”, the erythema/irritation ([3]; 2% in petroleum jelly, 1 hour after application) was “did not cause erythema/irritation” and the temporal erythema response ([3]; 5% in petroleum jelly) was “resolved rapidly”. For the same compound, the PASI scores ([4]; 0.5% topical, relative to Vehicle-treated mice) was “significantly lower on days 3 (P<0.05) and 4 (P<0.01)”, the erythema score ([4]; 0.5 or 5% topical, vs Vehicle) was “significant, and dose-dependent, reductions” and the scaling score ([4]; 0.5 or 5% topical, vs Vehicle) was “significant, and dose-dependent, reductions”. For the same compound, the skin thickness score ([4]; 0.5 or 5% topical, vs Vehicle) was “significant, and dose-dependent, reductions”, the “efficacy in the ALDARA model” value ([4]; 2%) was “effective” and the “skin inflammation (PASI score)” value ([4]; higher dose (5%) topical, vs Vehicle) was “reduced skin inflammation on days 3-5 (P<0.01-0.001)”. The “progressive development of psoriasis-like skin inflammation” value ([4]; topical in white petroleum jelly, two separate experiments (3%; 0.5 or 5%), vs Vehicle) was “significantly (P<0.05-0.001) reduced”, the “number of IL-17 expressing cells” value [5] was “inhibitory effect” and the “percentage of TNF-alpha expressing cells” value ([5]; 50 μM) was “reduced”. The GM-CSF [5, 6] was “appreciable effect”, the IL-2 [5, 6] was “not to have any appreciable effect” and the “percentage of IFN-gamma expressing cells” value ([5]; in comparison to control) was “significantly reduced”.
